Source: patent publication US4119667A, “Haloaniline derivatives as plant growth modifiers” (Rohm and Haas Company, priority 1974, dated 1978)
Structures can show the parent of a compound that is named as a salt. Where two headings read alike, the source gives them in different places.

System: soybean (Var. Clark)
Assay: greenhouse growth regulator test on soybean (Table I)
Format: in vivo
Details: two weeks after application; for Injury (0-10): 0-10 scale, 0 = no effect, 10 = complete kill; for pest or weed control / pest or weed control at 2241.7 g/ha: Glycine max, foliar, 336 h, read-out: Height (% inhib.); for pest or weed control / pest or weed control at 2241.7 g/ha / Height (% inhib.): relative to control
Source text: Limited greenhouse experiments shown that there is promotion of lateral bud growth when compounds are applied at higher concentrations and earlier timings and an increase in soybean pod numbers at lower rates applied just prior to or at the flowering stage. […] Three parameters are reported in Table I to indicate the general spectrum of activity for each evaluated compound including the propensity for releasing lateral bud growth in soybeans. These are: (a) plant height measured as percent inhibition relative to the control; (b) the number of lateral buds per plant; and (c) phytotoxic injury on a scale of 0 to 10 (10 being maximum injury). Sampling compounds were evaluated in the greenhouse in a special growth regulator test. Four to five soybean seeds (Var. Clark) were planted in 4-inch pots with a humus-soil mixture. Two weeks after planting, two uniform plants were selected from each pot for treatment. The candidate compounds were dissolved in acetone-water (1:1), and applied as a foliar spray in a carrier volume of 50 gallons per acre, using a moving belt sprayer at a rate of 1/4, 1/2 and 2 lbs/acre. Six plants were used for each treatment. Two weeks after application, the number of laterals per plant, plant injury (0-10 scale; 0 = no effect, 10 = complete kill,) and the height of each plant were recorded. Untreated plants were used as controls.

| Structure (SMILES) | No. Laterals per plant (1/2 lbs/acre foliar spray) | Injury (0-10) (1/2 lbs/acre) | No. Laterals per plant (1/4 lbs/acre foliar spray) | Injury (0-10) (1/4 lbs/acre) | No. Laterals per plant (2 lbs/acre foliar spray) | Injury (0-10) (2 lbs/acre) | pest or weed control (1/2 lbs/acre foliar spray) [%] | pest or weed control (1/4 lbs/acre foliar spray) [%] | pest or weed control at 2241.7 g/ha (2 lbs/acre foliar spray) [%] | Height (% inhib.) (2 lbs/acre foliar spray) | Height (% inhib.) (1/2 lbs/acre foliar spray) | Height (% inhib.) (1/4 lbs/acre foliar spray) | Height (% inhib.) (1/2 lbs/acre foliar spray, HCl) | No. Laterals per plant (1/2 lbs/acre foliar spray, HCl) | Injury (0-10) (1/2 lbs/acre, HCl) | Height (% inhib.) (1/4 lbs/acre foliar spray, HCl) | No. Laterals per plant (1/4 lbs/acre foliar spray, HCl) | Injury (0-10) (1/4 lbs/acre, HCl) | Height (% inhib.) (2 lbs/acre foliar spray, HCl) | No. Laterals per plant (2 lbs/acre foliar spray, HCl) |
| --- | --- | --- | --- | --- | --- | --- | --- | --- | --- | --- | --- | --- | --- | --- | --- | --- | --- | --- | --- | --- |
| Clc1ccc(NCNc2ccc(Cl)c(Cl)c2)cc1Cl [II, n,n'-bis[3,4-dichlorophenyl]methanediamine] | 0 | 2 | 2 | 3 | 5 | 2 | 15 | 20 | 7 | – | – | – | – | – | – | – | – | – | – | – |
| Brc1cc(Br)cc(NCNc2cc(Br)cc(Br)c2)c1 [III, n,n'-bis[3,5-dibromophenyl]methanediamine] | 0 | 1 | 0 | 1 | 3 | 1 | 2 | 0 | 0 | – | – | – | – | – | – | – | – | – | – | – |
| Clc1ccc(N=Cc2ccccc2Cl)cc1Cl [IX, 3,4-dichloro-N-(2-chlorobenzylidene)aniline] | 4 | 0 | 0 | 0 | 4 | 2 | 23 | 0 | 12 | – | – | – | – | – | – | – | – | – | – | – |
| Clc1cc(Cl)cc(N=Cc2ccccc2Cl)c1 [V, 3,5-dichloro-N-(2-chlorobenzylidine)aniline] | 3 | 0 | 2 | 0 | 5 | 0 | 8 | 1 | 13 | – | – | – | – | – | – | – | – | – | – | – |
| Clc1cccc(C=Nc2cc(Cl)cc(Cl)c2)c1 [VI, 3,5-dichloro-N-(3-chlorobenzylidene)aniline] | 3 | 1 | 2 | 2 | 5 | 1 | 21 | – | 13 | – | – | – | – | – | – | – | – | – | – | – |
| Clc1ccc(C=Nc2cc(Cl)cc(Cl)c2)cc1 [VII, 3,5-dichloro-N-(4-chlorobenzylidene)aniline] | 4 | 0 | 2 | 0 | 5 | 0 | 9 | – | 13 | – | – | – | – | – | – | – | – | – | – | – |
| Clc1cc(Cl)cc(N=Cc2c(Cl)cccc2Cl)c1 [VIII, 3,5-dichloro-N-(2,6-dichlorobenzylidene)aniline] | 2 | 0 | 0 | 0 | 5 | 0 | 7 | 1 | 15 | – | – | – | – | – | – | – | – | – | – | – |
| Clc1cccc(C=Nc2ccc(Cl)c(Cl)c2)c1 [X, 3,4-dichloro-N-(3-chlorobenzylidene)aniline] | 3 | 1 | 1 | 0 | 3 | 3 | 14 | 9 | 13 | – | – | – | – | – | – | – | – | – | – | – |
| Clc1ccc(C=Nc2ccc(Cl)c(Cl)c2)cc1 [XI, 3,4-dichloro-N-(4-chlorobenzylidene)aniline] | 5 | 1 | 1 | 0 | 4 | 3 | 25 | 4 | 14 | – | – | – | – | – | – | – | – | – | – | – |
| Clc1ccc(N=Cc2c(Cl)cccc2Cl)cc1Cl [XII, 3,4-dichloro-N-(2,6-dichlorobenzylidene)aniline] | 2 | 1 | 1 | 1 | 6 | 1 | – | 5 | 18 | – | – | – | – | – | – | – | – | – | – | – |
| Clc1cc(Cl)cc(N=CNc2cc(Cl)cc(Cl)c2)c1 [XIV, N,N'-Bis[3,5-dichlorophenyl]formamidine] | 3 | 3 | 1 | 2 | 4 | 0 | 11 | 13 | – | 4 | – | – | – | – | – | – | – | – | – | – |
| O=CNc1ccc(Cl)c(Cl)c1 [XIX, 3',4'-dichloroformanilide] | 0 | 0 | 5 | 1 | 4 | 3 | 0 | 2 | 13 | – | – | – | – | – | – | – | – | – | – | – |
| Clc1ccc(N=CNc2ccc(Cl)c(Cl)c2)cc1Cl [XV, n,n'-bis[3,4-dichlorophenyl]formamidine] | 2 | 2 | 2 | 2 | 2 | 1 | – | – | – | 4 | 15 | 23 | – | – | – | – | – | – | – | – |
| CCOC=Nc1cc(Cl)cc(Cl)c1 [XVI, Ethyl N-(3,5-dichlorophenyl)formimidate] | 4 | 1 | 2 | 1 | 5 | 2 | 2 | 0 | 22 | – | – | – | – | – | – | – | – | – | – | – |
| CCOC=Nc1ccc(Cl)c(Cl)c1 [XVII, ethyl N-(3,4-dichlorophenyl)formimidate] | 0 | 1 | 2 | 2 | 4 | 6 | – | 24 | 34 | – | – | – | – | – | – | – | – | – | – | – |
| Cl.Clc1cc(Cl)cc(N=CNc2cc(Cl)cc(Cl)c2)c1 [XX, N,N'-Bis[3,5-dichlorophenyl]formamidine hydrochloride] | 4 | 2 | 2 | 2 | 6 | 0 | – | – | – | 44 | 19 | 10 | – | – | – | – | – | – | – | – |
| Clc1ccc(N=CNc2ccc(Cl)c(Cl)c2)cc1Cl [XXI, n,n'-bis[3,4-dichlorophenyl]formamidine HCl] | – | – | – | – | – | – | – | – | – | – | – | – | 4 | 4 | 1 | 0 | 1 | 0 | 20 | 5 |
| CCOC(CC)=Nc1cc(Cl)cc(Cl)c1 [XXII, Ethyl N-(3,5-dichlorophenyl)propionimidate] | 3 | 1 | 1 | 2 | 3 | 1 | – | – | – | – | – | – | – | – | – | – | – | – | – | – |
